For this test, the system named is lipase. In words: Inhibition and activation of lipase activity by divalent metal ions, SH reagent and surface-active agents. The test is classed as biochemical, Staphylococcus capitis. The method, then: The effects of the divalent metal ions, SH reagent and surface-active agents on the lipase activity were evaluated by measuring the residual activities after treatment. […] The lipase activity is increased 3-fold to 5-fold by the presence of Ca^2+.
The lipase activity is more than 90% inhibited by 2 mM sodium laurylsulfate (SDS), 2 mM iodine acetamide, 0.1% Tween 20, 0.1% Tween 80, and 0.1% Triton X-100.
One milliliter of olive oil is added to a test tube (.phi.25×200 mm) containing 5 ml of a reaction mixture consisting of 25 mM of a Tris-HCl buffer (pH 8.0) and 10 mM of CaCl2, the tube is stirred vigorously with a mixer, and 0.5 ml of an enzyme solution is added to the tube. The reaction is carried out during which the tube is shaken at 300 rpm on a reciprocating shaker. The reaction is stopped on the addition of 20 ml of ethanol and the fatty acids formed are titrated with 0.05 N of an aqueous sodium hydroxide solution. The control values are likewise determined by titrating the solution obtained by first adding ethanol to a reaction mixture of the composition and then adding an enzyme solution to the same. According to a proposal by Enzyme Nomenclature; recommendations (1978) of the nomenclature committee of the International Union of Biochemistry (I.U.B.), Academic Press, a unit of lipase activity is defined as that amount of lipase required to liberate 1 μmole of fatty acids per minute under reaction conditions.

For the compound Triton X-100, under “0.1%”, the “inhibition of lipase activity” value is listed as “more than 90%”.

Turning to `[Mg+2]` [Mg^2+], where the note is “10 mM”, the “inhibition of lipase activity (residual activity after treatment)” value was “No inhibition”.

Turning to `NC(=O)CI` [iodine acetamide], the “inhibition of lipase activity” value (2 mM) is “more than 90%”.

`[Mn+2]` [Mn^2+]: the “inhibition of lipase activity (residual activity after treatment)” value (10 mM) is reported as “No inhibition”.

Turning to `[Cu+2]` [Cu^2+], for the setting “10 mM”, the “inhibition of lipase activity (residual activity after treatment)” value is recorded as “No inhibition”.

In the case of `CCCCCCCC/C=C\CCCCCCCC(=O)OCCOCC(OCCO)C1OCC(OCCO)C1OCCO` (stereo not shown) [Tween 80], the “inhibition of lipase activity” value (0.1%) is on record as “more than 90%”.

Take `[Ca+2]` [Ca^2+]: the “inhibition of lipase activity (residual activity after treatment)” value (10 mM) is listed as “No inhibition”.

Regarding `[Zn+2]` [Zn^2+], the “inhibition of lipase activity (residual activity after treatment)” value (10 mM) is listed as “No inhibition”.

Consider `CCCCCCCCCCCCOS(=O)(=O)[O-].[Na+]` [sodium laurylsulfate (SDS), sodium laurylsulfate], for which the “inhibition of lipase activity” value (2 mM) is recorded as “more than 90%”.

Consider `[Fe+2]` [Fe^2+], for which the “inhibition of lipase activity (residual activity after treatment)” value (1 mM) is “No inhibition”.

Source of the values: patent publication US4791059A, “Process for preparing lipase” (Suntory Limited, priority 1984, dated 1988).
